Results reported in patent US20240325398A1, “COMBINATION THERAPIES” (Infinity Pharmaceuticals, Inc., priority 2014, published 2024).

Legend:
Jeko-1 = test: Combination study, ATPLite 72 h, dose matrix (Synergy Score, CI50); conditions: combination with Compound 1
OCI-Ly7 = test: as above; conditions: combination with Compound 1, 72 h
NCI-H929 = test: as above; conditions: combination with Compound 1
Protocol: (§1) Cells are thawed from a liquid nitrogen preserved state. Once cells have been expanded and divide at their expected doubling times, screening begins. Cells are seeded in growth media in either black 1536-well or 384-well tissue culture treated plates. Cells are then equilibrated in assay plates via centrifugation and placed in incubators attached to the Dosing Modules at 37° C. for 24 hours before treatment. […] These Tzero (To) plates are read using ultra-sensitive luminescence on Envision plate readers (Perkin Elmer). Treated assay plates are incubated with compound for 72 hours. After 72 hours, plates are developed for endpoint analysis using ATPLite. All data points are collected via automated processes, quality controlled and analyzed using Zalicus software.
(§2) where T is treated cell count and V is untreated (vehicle) cell count (at 72 hours). I ranges from 0% (when T=V) to 100% (when T=0). […] The measure of effect in the experiment can be the inhibition of cellular response relative to the untreated level (vehicle alone). […] The inhibition ranges from 0% at the untreated level to 100% when T=0. Inhibition levels are negative for agents that actually increase levels. Other effect measures, such as an activity ratio r=T/V may be more appropriate for some assays. When activity ratios (e.g, fold increase over stimulated control) are being used, the effect can be measured using an induction 1=ln(T/V). With this definition, all effect expressions are the same as for inhibition.
(§3) Growth Inhibition (GI) is used as a measure of cell viability. […] A GI reading of 100% represents complete growth inhibition—T72 compound-treated and T0 vehicle signals are matched. […] A GI reading of 200% represents complete death of all cells in the culture well. Compounds reaching an activity plateau of GI 200% are considered cytotoxic. GI is calculated by applying the following test and equation:
(§4) Combination analysis data were collected in a 6×6 dose matrix. Synergy is calculated by comparing a combination's response to those of its single compound, against the drug-with-itself dose-additive reference model. Deviations from dose additivity may be assessed visually on an isobologram or numerically with a Combination Index (CI). […] Additive effect is CI=1.0. […] Antagonistic effect is CI>1.0.
(§5) To measure combination effects in excess of Loewe additivity, a scalar measure to characterize the strength of synergistic interaction termed the Synergy Score is devised. The Synergy Score is calculated as:
(§6) The fractional inhibition for each component agent and combination point in the matrix is calculated relative to the median of all vehicle-treated control wells. The Synergy Score equation integrates the experimentally-observed activity volume at each point in the matrix in excess of a model surface numerically derived from the activity of the component agents using the Loewe model for additivity. Additional terms in the Synergy Score equation (above) are used to normalize for various dilution factors used for individual agents and to allow for comparison of synergy scores across an entire experiment. The inclusion of positive inhibition gating or an Idata multiplier removes noise near the zero effect level, and biases results for synergistic interactions at that occur at high activity levels.
(§7) Loewe Volume (Loewe Vol) is used to assess the overall magnitude of the combination interaction in excess of the Loewe additivity model. Loewe Volume is particularly useful when distinguishing synergistic increases in a phenotypic activity (positive Loewe Volume) versus synergistic antagonisms (negative Loewe Volume). […] This model defines additivity as a non-synergistic combination interaction where the combination dose matrix surface should be indistinguishable from either drug crossed with itself.

Farage = test: as above; conditions: combination with Compound 1; Farage; 72 h
HH = test: as above; assay type: cell-based; conditions: combination with Compound 1
Protocol: The method is described as follows.
Additive effect is CI=1.0. […] Antagonistic effect is CI>1.0.
The Synergy Score is calculated as: […]

SU-DHL-10-epst = test: as above; conditions: combination with Compound 1, 72 h
OCI-Ly3 = test: as above; conditions: combination with Compound 1; OCI-Ly3; 72 h
Protocol: as §1, §2, §3, §4, §5, §6
(§8) Loewe Volume (Loewe Vol) is used to assess the overall magnitude of the combination interaction in excess of the Loewe additivity model. Loewe Volume is particularly useful when distinguishing synergistic increases in a phenotypic activity (positive Loewe Volume) versus synergistic antagonisms (negative Loewe Volume). […] This model defines additivity as a non-synergistic combination interaction where the combination dose matrix surface should be indistinguishable from either drug crossed with itself. The calculation for Loewe additivity is:

Mino = test: as above; conditions: combination with Compound 1
RPMI-8226 = test: as above; conditions: combination with Compound 1
DOHH-2 = test: as above; conditions: combination with Compound 1, 72 h
OMP-2 = test: as above; conditions: combination with Compound 1; OPM-2
[1] = as above; conditions: combination with Compound 1; OPM-2
KARPAS-299 = test: as above; conditions: combination with Compound 1
Protocol: as §1, §2, §3, §4, §5, §6, §7

SU-DHL-4-epst = test: as above; conditions: combination with Compound 1, 72 h
TMD8 = test: as above; conditions: combination with Compound 1
RL = test: as above; conditions: combination with Compound 1, 72 h
GRANTA-519 = test: as above; conditions: combination with Compound 1
U-2932 = test: as above; conditions: combination with Compound 1, 72 h
Protocol: as §1, §2, §3, §4, §5, §6, §8

KARPAS-422 = test: as above; conditions: combination with Compound 1, 72 h
HBL-1 = test: as above; conditions: combination with Compound 1, 72 h
WSU-NHL = test: as above; conditions: combination with Compound 1, 72 h
Protocol: as §1, §2, §3, §4, §5, §6, §7

CC(=O)Nc1cccc(-n2c(=O)n(C3CC3)c(=O)c3c(Nc4ccc(I)cc4F)n(C)c(=O)c(C)c32)c1 [trametinib, N-(3-{3-cyclopropyl-5-[(2-fluoro-4-iodophenyl)amino]-6,8-dimethyl-2,4,7-trioxo-3,4,6,7-tetrahydropyrido[4,3-d]pyrimidin-1(2H)-yl}phenyl)acetamide]
CI50 growth inhibition (Jeko-1): U (U=0.7 to <1)
CI50 inhibition (Jeko-1): W (W=≥1)
Synergy Score growth inhibition (Jeko-1): A1 (A1=0.0001 to <1)
Synergy Score inhibition (Jeko-1): A1 (A1=0.0001 to <1)
Synergy Score growth inhibition (OCI-Ly7): A1 (A1=0.0001 to <1)
Synergy Score inhibition (OCI-Ly7): A1 (A1=0.0001 to <1)
CI50 growth inhibition (NCI-H929): T (T=0.5 to <0.7)
CI50 inhibition (NCI-H929): S (S=0.01 to <0.5)
Synergy Score growth inhibition (NCI-H929): A3 (A3=>3)
Synergy Score inhibition (NCI-H929): A2 (A2=1 to <3)
CI50 growth inhibition (Farage): W (W=≥1)
CI50 inhibition (Farage): U (U=0.7 to <1)
Synergy Score growth inhibition (Farage): A2 (A2=1 to <3)
Synergy Score inhibition (Farage): A2 (A2=1 to <3)
CI50 growth inhibition (HH): S (S=0.01 to <0.5)
CI50 inhibition (HH): S (S=0.01 to <0.5)
Synergy Score growth inhibition (HH): A3 (A3=>3)
Synergy Score inhibition (HH): A2 (A2=1 to <3)
CI50 growth inhibition (SU-DHL-10-epst): S (S=0.01 to <0.5)
CI50 inhibition (SU-DHL-10-epst): S (S=0.01 to <0.5)
Synergy Score growth inhibition (SU-DHL-10-epst): A3 (A3=>3)
Synergy Score inhibition (SU-DHL-10-epst): A3 (A3=>3)
CI50 growth inhibition (OCI-Ly3): W (W=≥1)
Synergy Score growth inhibition (OCI-Ly3): A2 (A2=1 to <3)
Synergy Score inhibition (OCI-Ly3): A1 (A1=0.0001 to <1)
CI50 growth inhibition (Mino): S (S=0.01 to <0.5)
CI50 inhibition (Mino): S (S=0.01 to <0.5)
Synergy Score growth inhibition (Mino): A3 (A3=>3)
Synergy Score inhibition (Mino): A3 (A3=>3)
CI50 growth inhibition (RPMI-8226): U (U=0.7 to <1)
Synergy Score growth inhibition (RPMI-8226): A2 (A2=1 to <3)
Synergy Score inhibition (RPMI-8226): A1 (A1=0.0001 to <1)
CI50 growth inhibition (DOHH-2): U (U=0.7 to <1)
CI50 inhibition (DOHH-2): W (W=≥1)
Synergy Score growth inhibition (DOHH-2): A3 (A3=>3)
Synergy Score inhibition (DOHH-2): A2 (A2=1 to <3)
CI50 inhibition (OMP-2): W (W=≥1)
Synergy Score growth inhibition (OMP-2): A2 (A2=1 to <3)
Synergy Score inhibition (OMP-2): A2 (A2=1 to <3)
CI50 growth inhibition [1]: T (T=0.5 to <0.7)
Synergy Score growth inhibition (KARPAS-299): A1 (A1=0.0001 to <1)
Synergy Score inhibition (KARPAS-299): A1 (A1=0.0001 to <1)
CI50 growth inhibition (SU-DHL-4-epst): S (S=0.01 to <0.5)
CI50 inhibition (SU-DHL-4-epst): S (S=0.01 to <0.5)
Synergy Score growth inhibition (SU-DHL-4-epst): A3 (A3=>3)
Synergy Score inhibition (SU-DHL-4-epst): A2 (A2=1 to <3)
CI50 growth inhibition (TMD8; TMD8, 72 h): S (S=0.01 to <0.5)
CI50 inhibition (TMD8; TMD8, 72 h): S (S=0.01 to <0.5)
Synergy Score growth inhibition (TMD8; TMD8, 72 h): A3 (A3=>3)
Synergy Score inhibition (TMD8; TMD8, 72 h): A3 (A3=>3)
effect of the combination (isobologram) (TMD8; TMD8 DLBCL cell line, FIG. 1-3): synergistic effect
Synergy Score growth inhibition (RL): A1 (A1=0.0001 to <1)
Synergy Score inhibition (RL): A1 (A1=0.0001 to <1)
CI50 growth inhibition (GRANTA-519): S (S=0.01 to <0.5)
Synergy Score growth inhibition (GRANTA-519): A2 (A2=1 to <3)
Synergy Score inhibition (GRANTA-519): A1 (A1=0.0001 to <1)
CI50 growth inhibition (U-2932): U (U=0.7 to <1)
Synergy Score growth inhibition (U-2932): A1 (A1=0.0001 to <1)
Synergy Score inhibition (U-2932): A1 (A1=0.0001 to <1)
CI50 growth inhibition (KARPAS-422): S (S=0.01 to <0.5)
CI50 inhibition (KARPAS-422): S (S=0.01 to <0.5)
Synergy Score growth inhibition (KARPAS-422): A2 (A2=1 to <3)
Synergy Score inhibition (KARPAS-422): A2 (A2=1 to <3)
CI50 growth inhibition (HBL-1): U (U=0.7 to <1)
Synergy Score growth inhibition (HBL-1): A2 (A2=1 to <3)
Synergy Score inhibition (HBL-1): A1 (A1=0.0001 to <1)
CI50 growth inhibition (WSU-NHL): T (T=0.5 to <0.7)
CI50 inhibition (WSU-NHL): S (S=0.01 to <0.5)
Synergy Score growth inhibition (WSU-NHL): A3 (A3=>3)
Synergy Score inhibition (WSU-NHL): A3 (A3=>3)
